# Assay results as given in ChEMBL document CHEMBL1139561, “Biaryl isoxazolinone antibacterial agents” (Bioorg Med Chem Lett, 2005).
# What was measured:
# [1] = Protective dose against Staphylococcus aureus in mice after 8 days of oral b.i.d. administration at 1 and 5 hr per interval (n=10); assay type: functional; conditions: read-out: PD50
# [2] = tested on: Staphylococcus aureus; test: Minimum inhibition concentration against Staphylococcus aureus strains in presence of 0.25% calf serum; assay type: functional
# [3] = Half life for compound in mouse was determined; assay type: ADME; conditions: in vivo
# [4] = Area under curve concentration in mouse was determined; assay type: ADME; conditions: in vivo
# [5] = tested on: Haemophilus influenzae; test: Minimum inhibition concentration against Haemophilus influenzae strains; assay type: functional
# [6] = Maximum serum concentration in mouse was determined; assay type: ADME, organism-based
# [7] = tested on: Staphylococcus aureus; test: Minimum inhibition concentration against Staphylococcus aureus strains in presence of >64% calf serum; assay type: functional
# [8] = tested on: Staphylococcus aureus; test: Minimum inhibition concentration against Staphylococcus aureus strains in presence of 4% calf serum; assay type: functional
# [9] = tested on: Staphylococcus aureus; test: Minimum inhibition concentration against Staphylococcus aureus strains in presence of 2% calf serum; assay type: functional
# [10] = tested on: Staphylococcus aureus; test: Minimum inhibition concentration against Staphylococcus aureus strains in presence of 16% calf serum; assay type: functional
# [11] = tested on: Staphylococcus aureus; test: Minimum inhibition concentration against Staphylococcus aureus strains in presence of 8% calf serum; assay type: functional
# [12] = tested on: Staphylococcus aureus; test: Minimum inhibition concentration against Staphylococcus aureus strains in presence of 1% calf serum; assay type: functional
# [13] = tested on: Staphylococcus aureus; test: Minimum inhibition concentration against Staphylococcus aureus strains in presence of >32% calf serum; assay type: functional
# [14] = tested on: Mus musculus; test: Protective dose against Staphylococcus aureus in mice after 8 days of oral b.i.d. administration at 1 and 5 h per interval with water as vehicle (n=10); range is 5-6 mg/kg/day; assay type: functional; conditions: read-out: PD50
# [15] = tested on: Staphylococcus aureus; test: Minimum inhibition concentration against Staphylococcus aureus strains in presence of 32% calf serum; assay type: functional; conditions: Staphylococcus aureus
# [16] = Half life for compound in rat was determined; assay type: ADME; conditions: in vivo
# [17] = Maximum serum concentration in rat was determined; assay type: ADME, organism-based
# [18] = tested on: Staphylococcus aureus; test: Minimum inhibition concentration against Staphylococcus aureus strains in presence of 0.5% calf serum; assay type: functional
structure (smiles),measurement,setting,value
CC(=O)NCn1cc(-c2ccc(-c3cncnc3)cc2)c(=O)o1,ED50,[1],> 14.1 mg/kg/day
same,MIC,[2],0.25 µg/mL
same,half-life,[3],1.72 h
same,AUC,[4],29.1 µg/h/mL
same,MIC,[5],4 µg/mL
same,Cmax,[6],10400 ng/mL
CC(=O)NCn1cc(-c2ccc(-c3cncc(C(=O)O)c3)cc2)c(=O)o1,MIC,[5],64 µg/mL
same,MIC,[7],32 µg/mL
CC(=O)NCn1cc(-c2ccc(-c3ccc(/C=C/[N+](=O)[O-])cc3)cc2)c(=O)o1,MIC,[8],0.125 µg/mL
same,MIC,[5],4 µg/mL
CC(=O)NCn1cc(-c2ccc(-c3ccc(F)c(C(=O)O)c3)cc2)c(=O)o1,MIC,[5],64 µg/mL
same,MIC,[7],32 µg/mL
CC(=O)NCn1cc(-c2ccc(-c3ccoc3)cc2)c(=O)o1,ED50,[1],> 50 mg/kg/day
same,MIC,[8],0.125 µg/mL
same,MIC,[5],4 µg/mL
CC(=O)NCn1cc(-c2ccc(-c3cccc(N)c3)cc2)c(=O)o1,MIC,[5],2 µg/mL
same,MIC,[9],0.125 µg/mL
CC(=O)NCn1cc(-c2ccc(-c3ccc[nH]3)cc2)c(=O)o1,MIC,[5],> 64 µg/mL
same,MIC,[10],8 µg/mL
CC(=O)NCn1cc(-c2ccc(-c3ccc(C(F)(F)F)cc3)cc2)c(=O)o1,MIC,[5],> 32 µg/mL
same,MIC,[11],0.25 µg/mL
COc1cccc(-c2ccc(-c3cn(CNC(C)=O)oc3=O)cc2)c1,MIC,[5],> 64 µg/mL
same,MIC,[12],0.06 µg/mL
CC(=O)NCn1cc(-c2ccc(-c3ccc(Oc4ccccc4)cc3)cc2)c(=O)o1,MIC,[13],64 µg/mL
same,MIC,[5],> 32 µg/mL
CC(=O)NCn1cc(-c2ccc(-c3cncs3)cc2)c(=O)o1,MIC,[8],0.5 µg/mL
same,MIC,[5],4 µg/mL
COc1ccc(-c2ccc(-c3cn(CNC(C)=O)oc3=O)cc2)c(OC)c1,MIC,[5],> 32 µg/mL
same,MIC,[11],2 µg/mL
COc1cc(-c2ccc(-c3cn(CNC(C)=O)oc3=O)cc2)cc(OC)c1OC,MIC,[5],> 32 µg/mL
same,MIC,[10],4 µg/mL
CC(=O)NCn1cc(-c2ccc(-c3ccc(OC(F)(F)F)cc3)cc2)c(=O)o1,MIC,[5],> 32 µg/mL
same,MIC,[10],0.5 µg/mL
CC(=O)NCn1cc(-c2ccc(-c3ccc(F)cc3)cc2)c(=O)o1,ED50,[1],< 5 mg/kg/day
same,MIC,[8],0.03 µg/mL
same,MIC,[5],2 µg/mL
CC(=O)NC[C@H]1CN(c2ccc(N3CCOCC3)c(F)c2)C(=O)O1 [LINEZOLID],ED50,[14],6 mg/kg/day
same,MIC,[5],32 µg/mL
same,MIC,[9],1 µg/mL
CC(=O)NCn1cc(-c2ccc(-c3sccc3CO)cc2)c(=O)o1,MIC,[8],0.25 µg/mL
same,MIC,[5],32 µg/mL
CC(=O)NCn1cc(-c2ccc(C3=CCN(C(=O)OC(C)(C)C)CC3)cc2)c(=O)o1,MIC,[15],8 µg/mL
same,MIC,[5],> 64 µg/mL
CC(=O)NCn1cc(-c2ccc(C3=CCN(C(=O)CO)CC3)cc2)c(=O)o1,ED50,[1],4 mg/kg/day
same,half-life,[3],0.392 h
same,AUC,[4],16.9 µg/h/mL
same,half-life,[16],0.6 h
same,MIC,[5],2 µg/mL
same,Cmax,[6],22900 ng/mL
same,Cmax,[17],1900 ng/mL
same,MIC,[18],0.25 µg/mL
CC(=O)NCn1cc(-c2ccc(C3=CCSCC3)cc2)c(=O)o1,MIC,[8],1 µg/mL
same,MIC,[5],32 µg/mL
CC(=O)NCn1cc(-c2ccc(-c3ccc(O)cc3)cc2)c(=O)o1,MIC,[5],8 µg/mL
same,MIC,[9],1 µg/mL
CC(=O)NCn1cc(-c2ccc(-c3ccccn3)cc2)c(=O)o1,MIC,[5],8 µg/mL
same,MIC,[9],1 µg/mL
CC(=O)NCn1cc(-c2ccc(-c3cccc(C(=O)O)c3)cc2)c(=O)o1,MIC,[5],8 µg/mL
same,MIC,[10],16 µg/mL
CC(=O)NCn1cc(-c2ccc(-c3c(C)noc3C)cc2)c(=O)o1,MIC,[5],> 64 µg/mL
same,MIC,[11],2 µg/mL
CSc1ccc(-c2ccc(-c3cn(CNC(C)=O)oc3=O)cc2)cc1,MIC,[5],> 32 µg/mL
same,MIC,[10],0.5 µg/mL
CC(=O)NCn1cc(-c2ccc(-c3cccnc3)cc2)c(=O)o1,ED50,[1],10 mg/kg/day
same,half-life,[3],1.45 h
same,AUC,[4],41.1 µg/h/mL
same,MIC,[8],0.5 µg/mL
same,MIC,[5],2 µg/mL
same,Cmax,[6],15300 ng/mL
CC(=O)NCn1cc(-c2ccc(-c3ccc(C)nc3)cc2)c(=O)o1,MIC,[5],8 µg/mL
same,MIC,[9],0.25 µg/mL
CC(=O)NCn1cc(-c2ccc(-c3sccc3CN3CCOCC3)cc2)c(=O)o1,MIC,[5],> 64 µg/mL
same,MIC,[7],8 µg/mL
CC(=O)NCn1cc(-c2ccc(C3CCN(C(=O)CO)CC3)cc2)c(=O)o1,ED50,[1],> 3.5 mg/kg/day
same,MIC,[5],16 µg/mL
same,MIC,[9],1 µg/mL
